Source: patent US7211572B2 (Japan Tobacco Inc., priority 2003, dated 2007)
Counter-ions that a name gives are not always drawn.

What follows are compounds tested against T1, HIV integrase (Human immunodeficiency virus type 1 group M subtype B, UniProt P12497, F1332H) (assay: Determination of enzyme (HIV integrase) inhibitory activity). Details: recombinant HIV integrase (F185H), strand transfer ELISA, absorbance at 450 nm.
T1 construct: HIV integrase full length gene; made in house; host or cells: Escherichia coli BL21(DE3), plasmid pET21a-INH
Assay type: biochemical
Procedure, shortened: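 Full-length integrase with F185H, expressed in E. coli and purified, was reacted for 60 min at 37 °C with compound and biotinylated donor DNA bound to streptavidin plates. Target DNA was added for 10 min, then anti-digoxigenin-peroxidase detection at A450; IC50 from % inhibition versus enzyme-free blank.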

Row | Compound | IC50 [nM]
1 | CC(C)C(=O)c1cn2c(c(O)c1=O)C(=O)N(Cc1cccc(Cl)c1)CC2 [Example 337, 2-(3-chlorobenzyl)-9-hydroxy-7-isobutyryl-3,4-dihydro-2H-pyrido[1,2-a]pyrazine-1,8-dione] | < 10
2 | O=C1c2c(O)c(=O)c(-c3nccs3)cn2CCN1CCCCc1ccccc1 [Example 338, 9-hydroxy-2-(4-phenylbutyl)-7-(thiazol-2-yl)-3,4-dihydro-2H-pyrido[1,2-a]pyrazine-1,8-dione hydrochloride] | 10 to 100
3 | CCCCCN1CCn2cc(-c3nccs3)c(=O)c(O)c2C1=O [Example 339, 9-hydroxy-2-pentyl-7-(thiazol-2-yl)-3,4-dihydro-2H-pyrido[1,2-a]pyrazine-1,8-dione hydrochloride] | 100 to 1000
4 | O=C1c2c(O)c(=O)c(-c3ccncc3)cn2CCN1Cc1cccc(Cl)c1F [Example 340, 2-(3-chloro-2-fluorobenzyl)-9-hydroxy-7-(pyridin-4-yl)-3,4-dihydro-2H-pyrido[1,2-a]pyrazine-1,8-dione hydrochloride] | < 10
5 | O=c1c(-c2ccncc2)cn2ccn(Cc3ccc(F)cc3)c(=O)c2c1O [Example 341, 2-(4-fluorobenzyl)-9-hydroxy-7-(pyridin-4-yl)-2H-pyrido[1,2-a]pyrazine-1,8-dione hydrochloride] | < 10
6 | O=c1c(-c2ccncn2)cn2ccn(Cc3cccc(Cl)c3F)c(=O)c2c1O [Example 342, 2-(3-chloro-2-fluorobenzyl)-9-hydroxy-7-(pyrimidin-4-yl)-2H-pyrido[1,2-a]pyrazine-1,8-dione trifluoroacetate] | < 10
7 | Cn1ncnc1-c1cn2c(c(O)c1=O)C(=O)N(Cc1ccc(F)c(Cl)c1)CC2 [Example 343, 2-(3-chloro-4-fluorobenzyl)-9-hydroxy-7-(2-methyl-2H-1,2,4-triazol-3-yl)-3,4-dihydro-2H-pyrido[1,2-a]pyrazine-1,8-dione] | < 10
8 | CC(=O)c1cn2ccn(Cc3ccc(F)cc3)c(=O)c2c(O)c1=O [Example 344, 7-acetyl-2-(4-fluorobenzyl)-9-hydroxy-2H-pyrido [1,2-a]pyrazine-1,8-dione] | < 10
9 | CC(C)C(=O)c1cn2ccn(Cc3ccc(F)cc3)c(=O)c2c(O)c1=O [Example 345, 2-(4-fluorobenzyl)-9-hydroxy-7-isobutyryl-2H-pyrido[1,2-a]pyrazine-1,8-dione hydrochloride] | < 10
10 | O=C(Nc1cn2c(c(O)c1=O)C(=O)N(Cc1cccc(Cl)c1)CC2)c1ccncc1 [Example 346, N-[2-(3-chlorobenzyl)-9-hydroxy-1,8-dioxo-1,3,4,8-tetrahydro-2H-pyrido[1,2-a]pyrazin-7-yl]isonicotinamide hydrochloride] | 10 to 100
11 | O=c1c(-c2ccncn2)cn2ccn(Cc3ccc(F)cc3)c(=O)c2c1O [Example 347, 2-(4-fluorobenzyl)-9-hydroxy-7-(pyrimidin-4-yl)-2H-pyrido[1,2-a]pyrazine-1,8-dione] | < 10
12 | O=C1c2c(O)c(=O)c(-c3cnccn3)cn2CCN1Cc1ccc(F)c(Cl)c1 [Example 348, 2-(3-chloro-4-fluorobenzyl)-9-hydroxy-7-(pyrazin-2-yl)-3,4-dihydro-2H-pyrido[1,2-a]pyrazine-1,8-dione] | 10 to 100
13 | CC(C)C(=O)Nc1cn2c(c(O)c1=O)C(=O)N(Cc1ccc(F)c(Cl)c1)CC2 [Example 349, N-[2-(3-chloro-4-fluorobenzyl)-9-hydroxy-1,8-dioxo-1,3,4,8-tetrahydro-2H-pyrido[1,2-a]pyrazin-7-yl]isobutyramide] | 10 to 100
14 | O=C1c2c(O)c(=O)c(-c3nccs3)cn2CCN1Cc1ccc(Cl)cc1O [Example 350, 2-(4-chloro-2-hydroxybenzyl)-9-hydroxy-7-(thiazol-2-yl)-3,4-dihydro-2H-pyrido[1,2-a]pyrazine-1,8-dione hydrochloride] | < 10
15 | CC(CCN1CCn2cc(-c3nccs3)c(=O)c(O)c2C1=O)c1ccccc1 (centres unmarked) [Example 351, 9-hydroxy-2-(3-phenylbutyl)-7-(thiazol-2-yl)-3,4-dihydro-2H-pyrido[1,2-a]pyrazine-1,8-dione hydrochloride] | 10 to 100
16 | O=C(Nc1cn2c(c(O)c1=O)C(=O)N(Cc1cccc(Cl)c1F)CC2)c1cccnc1 [Example 352, N-[2-(3-chloro-2-fluorobenzyl)-9-hydroxy-1,8-dioxo-1,3,4,8-tetrahydro-2H-pyrido[1,2-a]pyrazin-7-yl)nicotinamide hydrochloride] | 10 to 100
17 | CS(=O)(=O)Nc1cn2c(c(O)c1=O)C(=O)N(Cc1ccc(F)c(Cl)c1)CC2 [Example 353, N-[2-(3-chloro-4-fluorobenzyl)-9-hydroxy-1,8-dioxo-1,3,4,8-tetrahydro-2H-pyrido[1,2-a]pyrazin-7-yl]methanesulfonamide] | < 10
18 | CCCOc1ccc(CN2CCn3cc(-c4nccs4)c(=O)c(O)c3C2=O)cc1Cl [Example 354, 2-(3-chloro-4-propoxybenzyl)-9-hydroxy-7-(thiazol-2-yl)-3,4-dihydro-2H-pyrido[1,2-a]pyrazine-1,8-dione hydrochloride] | 10 to 100
19 | CC(C)Oc1ccc(CN2CCn3cc(-c4nccs4)c(=O)c(O)c3C2=O)cc1Cl [Example 355, 2-(3-chloro-4-isopropoxybenzyl)-9-hydroxy-7-(thiazol-2-yl)-3,4-dihydro-2H-pyrido[1,2-a]pyrazine-1,8-dione hydrochloride] | 10 to 100
20 | O=C1c2c(O)c(=O)c(-c3nccs3)cn2CCN1Cc1ccc(OCc2ccccc2)c(Cl)c1 [Example 356, 2-(4-benzyloxy-3-chlorobenzyl)-9-hydroxy-7-(thiazol-2-yl)-3,4-dihydro-2H-pyrido[1,2-a]pyrazine-1,8-dione hydrochloride] | 10 to 100
21 | CCCOc1cc(Cl)ccc1CN1CCn2cc(-c3nccs3)c(=O)c(O)c2C1=O [Example 357, 2-(4-chloro-2-propoxybenzyl)-9-hydroxy-7-(thiazol-2-yl)-3,4-dihydro-2H-pyrido[1,2-a]pyrazine-1,8-dione hydrochloride] | 10 to 100
22 | CC(C)Oc1cc(Cl)ccc1CN1CCn2cc(-c3nccs3)c(=O)c(O)c2C1=O [Example 358, 2-(4-chloro-2-isopropoxybenzyl)-9-hydroxy-7-(thiazol-2-yl)-3,4-dihydro-2H-pyrido[1,2-a]pyrazine-1,8-dione hydrochloride] | 10 to 100
23 | O=C1c2c(O)c(=O)c(-c3nccs3)cn2CCN1Cc1ccc(Cl)cc1OCc1ccccc1 [Example 359, 2-(2-benzyloxy-4-chlorobenzyl)-9-hydroxy-7-(thiazol-2-yl)-3,4-dihydro-2H-pyrido[1,2-a]pyrazine-1,8-dione hydrochloride] | 10 to 100
24 | Cn1ncnc1-c1cn2ccn(Cc3ccc(F)cc3)c(=O)c2c(O)c1=O [Example 360, 2-(4-fluorobenzyl)-9-hydroxy-7-(2-methyl-2H-1,2,4-triazol-3-yl)-2H-pyrido[1,2-a]pyrazine-1,8-dione hydrochloride] | < 10
25 | CNC(=O)c1cn2c(c(O)c1=O)C(=O)N(Cc1cccc(Cl)c1F)CC2 [Example 361, N-methyl-2-(3-chloro-2-fluorobenzyl)-9-hydroxy-1,8-dioxo-1,3,4,8-tetrahydro-2H-pyrido[1,2-a]pyrazine-7-carboxamide] | 10 to 100
26 | CCC(C)(C)C(=O)c1cn2c(c(O)c1=O)C(=O)N(Cc1cccc(Cl)c1)CC2 [Example 362, 2-(3-chlorobenzyl)-7-(2,2-dimethylbutyryl)-9-hydroxy-3,4-dihydro-2H-pyrido[1,2-a]pyrazine-1,8-dione] | 10 to 100
